Reference: PubChem BioAssay AID314 (DTP/NCI, 2004)
Several values for one entry are separate records, joined by “and”; a condition that tells them apart may be missing. Equal entries are not always repeated. Inconclusive results and toxic doses are left out. How the source made its calls: active means survival T/C of 150% or more; inactive means T/C below 125% in these data. Starred links: 1 amine or outer side, 2 acyl side, 3 side chain; linkers in the order of their positions; H or OH if unused. Positions of bridges follow the written chain, without caps; N, C: chain ends. Non-standard residues stand in square brackets, D forms with d. Residues, ends and D or L forms follow the SMILES beside them. Chains are numbered I, II in the order given. Actinocin(9to1) = Cc1c2oc3c(C)ccc(C(=O)[*:1])c3nc-2c(C(=O)[*:2])c(N)c1=O; aThr = C[C@H](O)[C@H](N)C(=O)O; NMeV = CN[C@H](C(=O)O)C(C)C; Sar = CNCC(=O)O

System: DBA/2 mice, P1534 leukemia ip, survival T/C
Test: NCI In Vivo Anticancer Drug Screen. Data for tumor model P1534 Leukemia (intraperitoneal) in DBA/2 mice
Details: endpoint: mean survival time, higher = longer survival
Experimental: The antitumor activity of compounds was measured in mice bearing transplantable tumors. Survival or tumor size were measured and the results are expressed as the measurement made in the treated group (T) divided by the measurement made in the vehicle treated control group (C). The tumor model used in this assay is P1534 Leukemia (intraperitoneal) in DBA/2 mice

[1] = dose: 31.3 mg/kg/injection, schedule: Q01DX010 (ip), vehicle: saline
[2] = dose: 10.0 mg/kg/injection, schedule: Q01DX010 (ip), vehicle: saline
[3] = dose: 20.0 mg/kg/injection, schedule: Q01DX010 (ip), vehicle: saline
[4] = dose: 2.5 mg/kg/injection, schedule: Q01DX010 (sc), vehicle: saline
[5] = dose: 5.0 mg/kg/injection, schedule: Q01DX010 (sc), vehicle: saline
[6] = dose: 10.0 mg/kg/injection, schedule: Q01DX010 (sc), vehicle: saline
[7] = dose: 2.5 mg/kg/injection, schedule: Q01DX010 (ip), vehicle: saline
[8] = dose: 1.25 mg/kg/injection, schedule: Q01DX010 (ip), vehicle: saline
[9] = dose: 0.13 mg/kg/injection, schedule: Q01DX010 (ip), vehicle: saline
[10] = dose: 0.25 mg/kg/injection, schedule: Q01DX010 (ip), vehicle: saline
[11] = dose: 0.5 mg/kg/injection, schedule: Q01DX010 (ip), vehicle: saline
[12] = dose: 1.0 mg/kg/injection, schedule: Q01DX010 (ip), vehicle: saline
[13] = dose: 6.25 mg/kg/injection, schedule: Q01DX010 (ip), vehicle: saline
[14] = dose: 12.5 mg/kg/injection, schedule: Q01DX010 (ip), vehicle: saline
[15] = dose: 2.0 mg/kg/injection, schedule: Q01DX010 (ip), vehicle: saline
[16] = dose: 3.13 mg/kg/injection, schedule: Q01DX010 (ip), vehicle: saline
[17] = dose: 5.0 mg/kg/injection, schedule: Q01DX010 (ip), vehicle: saline

Measured: T/C

O=C1CCC(N2C(=O)c3ccccc3C2=O)C(=O)N1 (configuration not stated)
inactive: [1] 100 % of control | dose: 62.5 mg/kg/injection, schedule: Q01DX010 (ip), vehicle: saline 96 % of control | dose: 125.0 mg/kg/injection, schedule: Q01DX010 (ip), vehicle: saline 96 % of control | dose: 250.0 mg/kg/injection, schedule: Q01DX010 (ip), vehicle: saline 96 % of control

CC1CCOS(=O)O1 (configuration not stated)
inactive: [2] 92 % of control | [3] 92 % of control

OC(CBr)C(O)C(O)C(O)CBr (configuration not stated)
inactive: dose: 100.0 mg/kg/injection, schedule: Q01DX010 (ip), vehicle: saline 100 % of control

COC12C(COC(N)=O)C3=C(C(=O)C(C)=C(N)C3=O)N1CC1C2N1C (configuration not stated)
inactive: [4] 108 % of control | [5] 108 % of control | [6] 100 % of control

Oc1cc(CN(CCCl)CCCl)c(O)cc1CN(CCCl)CCCl
inactive: [7] 117 % of control

O=C(O)c1[nH]c(=O)[nH]c(=O)c1F
inactive: [8] 86 % of control

CN(N=O)C(=O)NC(C=O)C(O)C(O)C(O)CO (configuration not stated)
inactive: dose: 40.0 mg/kg/injection, schedule: Q01DX010 (ip), vehicle: saline 122 % of control | dose: 90.0 mg/kg/injection, schedule: Q01DX010 (ip), vehicle: saline 100 % of control | dose: 135.0 mg/kg/injection, schedule: Q01DX010 (ip), vehicle: saline 86 % of control

CCC(=O)NC1=C(N2CC2)C(=O)C(NC(=O)CC)=C(N2CC2)C1=O
inactive: [9] 108 % of control | [10] 108 % of control | [11] 100 % of control | [12] 112 % of control

CN[C@H]1CCc2cc(OC)c(OC)c(OC)c2-c2ccc(OC)c(=O)cc21
inactive: dose: 0.63 mg/kg/injection, schedule: Q01DX010 (ip), vehicle: other 111 % of control and 115 % of control | dose: 1.25 mg/kg/injection, schedule: Q01DX010 (ip), vehicle: other 100 % of control and 103 % of control

CC(=O)c1cccc(NC2C(N)C(NC(=O)N(C)C)(C(C)O)C(C)(O)C2(O)COC(=O)c2c(C)cccc2O)c1 (configuration not stated)
inactive: [10] 90 % of control

C[C@]12C[C@H](O)[C@H]3[C@@H](CCC4=CC(=O)CC[C@@]43C)[C@@H]1CC[C@@H]2C(=O)CO
inactive: dose: 12.5 mg/kg/injection, schedule: Q01DX010 (sc), vehicle: steriod suspending solution 100 % of control | dose: 25.0 mg/kg/injection, schedule: Q01DX010 (sc), vehicle: steriod suspending solution 100 % of control | dose: 50.0 mg/kg/injection, schedule: Q01DX010 (sc), vehicle: steriod suspending solution 100 % of control | dose: 100.0 mg/kg/injection, schedule: Q01DX010 (sc), vehicle: steriod suspending solution 100 % of control

Nc1nc(SCc2ccccc2)c2[nH]cnc2n1
inactive: dose: 8.0 mg/kg/injection, schedule: Q01DX010 (ip), vehicle: saline 92 % of control and 100 % of control | dose: 16.0 mg/kg/injection, schedule: Q01DX010 (ip), vehicle: saline 100 % of control | [1] 88 % of control | dose: 32.0 mg/kg/injection, schedule: Q01DX010 (ip), vehicle: saline 100 % of control and 103 % of control

O=C1C=CC2(CCC23C=CC(=O)O3)O1 (configuration not stated)
inactive: [13] 100 % of control | [14] 100 % of control | dose: 25.0 mg/kg/injection, schedule: Q01DX010 (ip), vehicle: saline 106 % of control | dose: 50.0 mg/kg/injection, schedule: Q01DX010 (ip), vehicle: saline 86 % of control and 110 % of control

CO[C@H]1C[C@H](O[C@H]2CC[C@]3(C=O)[C@H]4CC[C@]5(C)[C@@H](C6=CC(=O)OC6)CC[C@]5(O)[C@@H]4CC[C@]3(O)C2)O[C@H](C)[C@H]1O
inactive: dose: 1.25 mg/kg/injection, schedule: Q01DX010 (sc), vehicle: saline 92 % of control | [4] 103 % of control | [5] 92 % of control | [6] 89 % of control

CN1CCCC1c1cccnc1 (configuration not stated)
inactive: [9] 100 % of control | [10] 100 % of control | [11] 100 % of control | [12] 100 % of control

NC(=O)N(CCCl)N=O
inactive: [11] 100 % of control | [12] 100 % of control | [15] 86 % of control

Nc1nc(=S)c2ncn(C3OC(CO)C(O)C3O)c2[nH]1 (configuration not stated)
inactive: [10] 110 % of control | [12] 96 % of control | [15] 89 % of control

CN(C)c1nc(N(C)C)nc(N(C)C)n1
inactive: dose: 9.4 mg/kg/injection, schedule: Q01DX010 (ip), vehicle: saline 103 % of control and 111 % of control | dose: 150.0 mg/kg/injection, schedule: Q01DX010 (ip), vehicle: saline 103 % of control and 107 % of control

Cc1c2oc3c(C)ccc(C(=O)N[C@@H]4C(=O)N[C@H](C(C)C)C(=O)N5CCC[C@H]5C(=O)N(C)CC(=O)N(C)[C@@H](C(C)C)C(=O)O[C@H]4C)c3nc-2c(C(=O)N[C@@H]2C(=O)N[C@H](C(C)C)C(=O)N3CCC[C@H]3C(=O)N(C)CC(=O)N(C)[C@@H](C(C)C)C(=O)O[C@H]2C)c(N)c1=O (I: [aThr][dV]P[Sar][NMeV] / II: [aThr][dV]P[Sar][NMeV]; ester I:1-I:C, II:1-II:C; linker I:N-II:N via Actinocin(9to1))
inactive: dose: 0.02 mg/kg/injection, schedule: Q01DX010 (ip), vehicle: other 93 % of control | dose: 0.03 mg/kg/injection, schedule: Q01DX010 (ip), vehicle: other 104 % of control | dose: 0.03 mg/kg/injection, schedule: Q01DX010 (ip), vehicle: saline 97 % of control | dose: 0.06 mg/kg/injection, schedule: Q01DX010 (ip), vehicle: other 103 % of control | dose: 0.06 mg/kg/injection, schedule: Q01DX010 (ip), vehicle: saline 100 % of control

C[C@@H](N)[C@@H](O)c1ccccc1
inactive: [16] 96 % of control

COc1ccc2[nH]c3c(C)c4ccncc4c(C)c3c2c1
inactive: [7] 100 % of control | [17] 93 % of control | [2] 103 % of control | [3] 117 % of control

CCc1c(CC(=O)O)c2cc(C)ccc2n1Cc1ccc(Cl)cc1
inactive: [16] 103 % of control | [13] 107 % of control | [14] 103 % of control

Cn1cnc([N+](=O)[O-])c1Sc1nc(N)nc2nc[nH]c12
inactive: [8] 100 % of control and 108 % of control | [7] 100 % of control and 108 % of control | [17] 88 % of control | [2] 88 % of control

C[C@@H]1CC[C@@]2(NC1)O[C@H]1C[C@H]3[C@@H]4CC=C5C[C@@H](O)CC[C@]5(C)[C@H]4CC[C@]3(C)[C@H]1[C@@H]2C
inactive: dose: 5.0 mg/kg/injection, schedule: Q01DX010 (sc), vehicle: steriod suspending solution 100 % of control | dose: 10.0 mg/kg/injection, schedule: Q01DX010 (sc), vehicle: steriod suspending solution 106 % of control | dose: 20.0 mg/kg/injection, schedule: Q01DX010 (sc), vehicle: steriod suspending solution 96 % of control | dose: 40.0 mg/kg/injection, schedule: Q01DX010 (sc), vehicle: steriod suspending solution 93 % of control

NC(Cc1ccc(N(CCCl)CCCl)cc1)C(=O)O (configuration not stated)
inactive: dose: 0.5 mg/kg/injection, schedule: Q01DX010 (ip), vehicle: alkali diluted with saline 102 % of control and 111 % of control | dose: 1.0 mg/kg/injection, schedule: Q01DX010 (ip), vehicle: alkali diluted with saline 104 % of control | [8] 100 % of control and 119 % of control | dose: 2.0 mg/kg/injection, schedule: Q01DX010 (ip), vehicle: alkali diluted with saline 99 % of control | [7] 100 % of control | dose: 4.0 mg/kg/injection, schedule: Q01DX010 (ip), vehicle: alkali diluted with saline 101 % of control | [17] 100 % of control

CC[n+]1c(-c2ccccc2)c2cc(N)ccc2c2ccc(N)cc21
inactive: [17] 113 % of control | [2] 120 % of control

N=C(N)SCc1c2ccccc2c(CSC(=N)N)c2ccccc12
inactive: [17] 100 % of control | [2] 96 % of control
